Legend:
human SPPL2a [1] = molecular target: T1, human SPPL2a (Homo sapiens, UniProt Q8TCT8); experiment: Sppl2a TL (translocation) imaging assay in U-2 OS cells; assay type: cell-based; set-up: expressed in transfected cells; settings: U-2 OS cells expressing human SPPL2a and EGFP-TNFα(aa1-76) NTF substrate; 24 h
T1 sequence (Q8TCT8 26-520): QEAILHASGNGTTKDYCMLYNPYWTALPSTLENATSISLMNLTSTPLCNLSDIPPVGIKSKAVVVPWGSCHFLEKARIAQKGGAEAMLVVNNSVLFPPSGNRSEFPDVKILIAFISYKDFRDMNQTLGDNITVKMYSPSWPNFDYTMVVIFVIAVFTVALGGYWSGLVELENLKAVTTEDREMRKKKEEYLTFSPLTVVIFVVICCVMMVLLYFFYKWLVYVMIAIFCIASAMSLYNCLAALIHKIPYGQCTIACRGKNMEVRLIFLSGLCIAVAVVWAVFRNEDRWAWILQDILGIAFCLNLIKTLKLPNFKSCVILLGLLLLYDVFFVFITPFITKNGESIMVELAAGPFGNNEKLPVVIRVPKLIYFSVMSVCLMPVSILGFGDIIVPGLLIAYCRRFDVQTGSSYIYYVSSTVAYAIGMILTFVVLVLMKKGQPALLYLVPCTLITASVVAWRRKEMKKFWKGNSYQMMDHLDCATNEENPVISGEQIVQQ
Experimental: SPPL2a, TL in U-2 OS Cells. Stable U-2 OS cell lines expressing human SPPL2a constitutively and a EGFP-labeled TNFα(aa1-76) NTF substrate under a doxycycline-regulated promoter were used for the imaging assays. Cells were seeded at 3000 cells/30 μL/384-well in DMEM/GlutaMax™-I (Invitrogen) supplemented with tetracycline-free 10% FBS (Amimed) and incubated at 37° C., 5% CO2 for 3-4 h. Subsequently, 3.3 μL of inhibitors, prediluted in doxycycline-containing medium for 11-point concentration-response curves, were added to each well using a CyBi well liquid handling device (Cybio AG, Jena, Germany) to result in final inhibitor concentrations ranging from 100 μM to 1 nM (final DMSO concentration 0.9% (v/v)) and 5 μg/mL doxycycline). The cells were incubated with inhibitor at 37° C., 5% CO2 for 24 h. Thereafter cell were fixed in 4% PFA/PBS and in parallel, nuclei were stained with Hoechst (Invitrogen) 1:5000 in PBS for 30 min. The plates were imaged using a Cellomics ArrayScan VTI HCS reader with 10×/0.3NA objective (Thermo Fisher Scientific, USA). Six images per well were acquired. Images for the EGFP signal (Ex395, Em509) and the Hoechst nuclear dye (Ex350, Em425) were acquired simultaneously with image analysis using the “Nuclear Translocation” assay algorithm of the Cellomics ArrayScan software. Nuclei were detected based on the Hoechst staining, the nuclear mask was transferred to the EGFP channel, and a 4 pixel wide cytoplasm ring region was defined around the nucleus. The intensity of the EGFP signal was measured both in the nuclear and in the cytoplasm ring region of each individual cell (in general 800-1000 individual cells were analyzed per well), and the difference of the average nuclear versus average cytoplasmic intensity of the EGFP signal was calculated (“CircRingAvgIntenDiffCh2”=“CircAvgIntenCh2”−“RingAvgIntenCh2”). Additionally the number of cells were acquired (feature termed “ValidCellCount”) and used to calculate cell toxicity (CC50). Percent inhibition was calculated relative to the positive (0.5 μM LY-411,575=100% inhibition) and negative (DMSO=0% inhibition) controls. The IC50 value was calculated from the plot of percentage of inhibition vs inhibitor concentration using nonlinear regression analysis software, e.g., Origin (OriginLab Corp.).

human SPPL2a [2] = molecular target: T1, human SPPL2a; experiment: Sppl2a RGA (reporter gene assay) in HEK293 cells; assay type: cell-based; set-up: expressed in transfected cells; host or cells: HEK293 (transient); settings: NT-TNF-VP16-Gal4 substrate, Gal4-luciferase reporter, 24 h
Excerpt: Sppl2a RGA (Reporter Gene Assay):
Sppl2a is an intramembrane aspartyl protease with similarities to presenilin, the active subunit of the γ-secretase complex. The assay is based on the coupling of the proteolytic degradation of a membrane bound synthetic substrate (VP16-Gal4 fusion protein with the N-terminal domain of TNF alpha), which migrates to the nucleus upon cleavage, with the Gal4 driven expression of luciferase. Inhibition of Sppl2a results in a reduction of nuclear VP16-Gal4 activator and therefore in a reduction of the production of luciferase. The luciferase dependent-luminescence is plotted against the concentrations of compound to generate a dose response curve, which allows the calculation of the IC50 value.
DNA vectors encoding human Sppl2a, NT-TNF-VP16-Gal4 and a Gal4-luciferase reporter were transiently transfected in HEK293 cells. In a typical experiment 5 μg plasmid for SPPL2a, 10 μg plasmid encoding the reporter Gal4-luciferase and 20 μg plasmid encoding the substrate NT-TF-VP16-Gal4 were mixed together. The DNA mixture was combined with 107 μl FuGENE® (Promega), 735 μl Opti-MEM® (Life Technologies) and incubated for 5 minutes at RT. To this mixture 20 mL of concentrated HEK293 cells were added and thoroughly mixed. The cell suspension was distributed to a white solid 384 well plate. Within 5 hours, 50 nl of compound in DMSO was stamped into the wells via pintool. The plate was incubated for 24 h at 37° C., 5% CO2 in a humidified incubator, before the addition of 25 μl Bright Glo. After incubation at RT for 5 min, the plate was transferred to a luminometer and the luminescence was measured. The IC50 was determined by plotting compound concentration vs. normalized luminescence values.

| SMILES | IC50 (human SPPL2a [1]) | IC50 (human SPPL2a [2]) |
| --- | --- | --- |
| CCc1cc(-c2cc(NC(=O)C[C@@H](C)C(=O)N[C@@H]3C(=O)N4CCCN4Cc4ccccc43)n(C)n2)on1 [Example 86, (R)-NA-(3-(3-Ethylisoxazol-5-yl)-1-methyl-1H-pyrazol-5-yl)-2-methyl-N^1-((S)-11-oxo-2,3,10,11-tetrahydro-1H,5H-benzo[d]pyrazolo [1,2-a][1,2]diazepin-10-yl)succinamide] | 10 nM | 4 nM |
| C[C@H](Cc1nc2cccc(Br)c2[nH]1)C(=O)N[C@@H]1C(=O)N2CCCN2Cc2ccccc21 [Example 113, (R)-3-(7-bromo-1H-benzo[d]imidazol-2-yl)-2-methyl-N-((S)-11-oxo-2,3,10,11-tetrahydro-1H,5H-benzo[d]pyrazolo[1,2-a][1,2]diazepin-10-yl)propanamide] | 180 nM | 42 nM |
| C[C@H](Cc1nc2cccc(C(F)(F)F)c2[nH]1)C(=O)N[C@@H]1C(=O)N2CCCN2Cc2ccccc21 [Example 114, (R)-2-methyl-N-((S)-11-oxo-2,3,10,11-tetrahydro-1H,5H-benzo[d]pyrazolo[1,2-a][1,2]diazepin-10-yl)-3-(7-(trifluoromethyl)-1H-benzo[d]imidazol-2-yl)propanamide] | 548 nM | 63 nM |
| C[C@H](CNC(=O)c1ccnn1C)C(=O)N[C@@H]1C(=O)N2CCCN2Cc2ccccc21 [Example 61, 1-methyl-N-((R)-2-methyl-3-oxo-3-(((S)-11-oxo-2,3,10,11-tetrahydro-1H,5H-benzo[d]pyrazolo [1,2-a][1,2]diazepin-10-yl)amino)propyl)-1H-pyrazole-5-carboxamide] | 686 nM | 691 nM |
| Cc1cc(-c2nc(C)c(C(=O)NC[C@H](C(=O)N[C@@H]3C(=O)N4CCCN4C(=O)c4ccccc43)C3CC3)s2)on1 [Example 41, N-((R)-2-Cyclopropyl-3-(((S)-5,11-dioxo-2,3,10,11-tetrahydro-1H,5H-benzo[d]pyrazolo [1,2-a][1,2]diazepin-10-yl)amino)-3-oxopropyl)-4-methyl-2-(3-methylisoxazol-5-yl)thiazole-5-carboxamide] | 59 nM | 37 nM |
| Cc1nc(Cl)c(C(=O)NC[C@H](C(=O)N[C@@H]2C(=O)N3CCCN3Cc3c(F)cccc32)C2CC2)s1 [Example 55, 4-Chloro-N-((R)-2-cyclopropyl-3-(((S)-6-fluoro-11-oxo-2,3,10,11-tetrahydro-1H,5H-benzo[d]pyrazolo [1,2-a][1,2]diazepin-10-yl)amino)-3-oxopropyl)-2-methylthiazole-5-carboxamide] | 163 nM | 152 nM |
| CC[C@H](CNC(=O)c1c(C)noc1C(F)(F)F)C(=O)N[C@@H]1C(=O)N2CC3(CC3)CN2C(=O)c2ccccc21 [Example 31, N-((R)-2-(((S)-5,11-Dioxo-10,11-dihydro-1H,3H,5H-spiro[benzo[d]pyr-azolo[1,2-a][1,2]diazepine-2,1′-cyclopropan]-10-yl)carbamoyl)butyl)-3-methyl-5-(trifluoromethyl) isoxazole-4-carboxamide] | 33 nM | 22 nM |
| C[C@@H](CF)NC(=O)c1cc(NC(=O)C[C@H](C(=O)N[C@@H]2C(=O)N3CCCN3Cc3ccccc32)C2CC2)n(C)n1 [Example 78, (S)-2-Cyclopropyl-N^4-(3-(((S)-1-fluoropropan-2-yl)carbamoyl)-1-methyl-1H-pyrazol-5-yl)-N^1-((S)-11-oxo-2,3,10,11-tetrahydro-1H,5H-benzo[d]pyrazolo [1,2-a][1,2]diazepin-10-yl)succinamide] | 6 nM | 43 nM |
| CC[C@H](CNC(=O)c1sc(C2=CCCC2)nc1Cl)C(=O)N[C@@H]1C(=O)N2CCCN2C(=O)c2ccccc21 [Example 28, 4-Chloro-2-(cyclopent-1-en-1-yl)-N-((R)-2-(((S)-5,11-dioxo-2,3,10,11-tetrahydro-1H,5H-benzo[d]pyrazolo [1,2-a][1,2]diazepin-10-yl)carbamoyl)butyl) thiazole-5-carboxamide] | 28 nM | 88 nM |
| C[C@H](CC(=O)Nc1cc(-c2ccc(C(F)(F)F)nc2)nn1C)C(=O)N[C@@H]1C(=O)N2CCCN2Cc2ccccc21 [Example 72, (R)-2-Methyl-N^4-(1-methyl-3-(6-(trifluoromethyl)pyridin-3-yl)-1H-pyrazol-5-yl)-N^1-((S)-11-oxo-2,3,10,11-tetrahydro-1H,5H-benzo[d]pyrazolo [1,2-a][1,2]diazepin-10-yl)succinamide] | 4 nM | 9 nM |
| CCn1nc(-c2ccc(C(F)(F)F)nc2)cc1NC(=O)C[C@@H](C)C(=O)N[C@@H]1C(=O)N2CCCN2Cc2ccccc21 [Example 83, (R)-N^4-(1-Ethyl-3-(6-(trifluoromethyl)pyridin-3-yl)-1H-pyrazol-5-yl)-2-methyl-N^1-((S)-11-oxo-2,3,10,11-tetrahydro-1H,5H-benzo[d]pyrazolo [1,2-a][1,2]diazepin-10-yl)succinamide] | 9 nM | 6 nM |
| CC(C)NC(=O)c1cc(NC(=O)C[C@H](C(=O)N[C@@H]2C(=O)N3CCCN3Cc3ccccc32)C2CC2)n(C)n1 [Example 67, (S)-2-Cyclopropyl-N^4-(3-(isopropylcarba-moyl)-1-methyl-1H-pyrazol-5-yl)-N^1-((S)-11-oxo-2,3,10,11-tetrahydro-1H,5H-benzo[d]pyrazolo [1,2-a][1,2]diazepin-10-yl)succinamide] | 2 nM | 5 nM |
| O=C(NC[C@H](C(=O)N[C@@H]1C(=O)N2CCCN2Cc2c(F)cccc21)C1CC1)c1sc(C2CC2)nc1Cl [Example 54, 4-Chloro-2-cyclopropyl-N-((R)-2-cyclopropyl-3-(((S)-6-fluoro-11-oxo-2,3,10,11-tetrahydro-1H,5H-benzo[d]pyrazolo [1,2-a][1,2]diazepin-10-yl)amino)-3-oxopropyl)thiazole-5-carboxamide] | 129 nM | 48 nM |
| C[C@H](CC(=O)Nc1sc(-c2ccn(C)n2)nc1Cl)C(=O)N[C@@H]1C(=O)N2CCCN2Cc2ccccc21 [Example 73, (R)-N^4-(4-Chloro-2-(1-methyl-1H-pyrazol-3-yl)thiazol-5-yl)-2-methyl-N^1-((S)-11-oxo-2,3,10,11-tetrahydro-1H,5H-benzo[d]pyrazolo [1,2-a][1,2]diazepin-10-yl)succinamide] | 4 nM | 25 nM |

Reference: US20230365571A1, “COMPOUNDS AND COMPOSITIONS AS Sppl2a INHIBITORS” (Novartis AG, priority 2020, published 2023)
